Results reported in patent US8031338B2, “Measuring Forster resonance energy transfer with polarized and depolarized light” (Vanderbilt University, priority 2004, dated 2011).

Assays:
[1] = system: COS-7 cells expressing SCAT3.1 (caspase-3 cleavage site); conditions: COS-7 cells expressing SCAT3.1, 96-well plate; 10 μM H2O2 for 90 min; FIG. 6D
[2] = system: COS-7 cells expressing SCAT3.1 (caspase-3 cleavage site); assay: A-FRET microscopy of SCAT 3.1 apoptosis sensor cleavage in live cells; format: cell-based; conditions: COS-7 cells transfected with SCAT 3.1; imaged immediately after treatment and after 5 hours; FIG. 6A-C
Protocol: Sample Preparation. Beads from a 5 ml HiTRAP chelating HP column (Amersham Biosciences) were charged using a 0.1M NiSO (Rizzo and Piston, 2005) solution and washed with 50 mM TrisHCl. The beads were then labeled as described (Youvan et al., 1997) with purified mCerulean, mVenus, or a linker protein containing mVenus and mCerulean separated by the linker sequence […]. Histadine-tagged recombinant protein was bacterially expressed and purified as previously described (Rizzo et al., 2004). For living cell studies, plasmid DNA encoding FP constructs were introduced was into COS-7 cells using FUGENE (Roche) transfection reagent according to the manufacturer's instructions. […]
Fluorescence Imaging. […] Fluorescence emission was filtered through a 515-540 nm bandpass filter and 2 mm BGG22 glass prior to separation vertical and horizontal polarizations with a broadband polarizing cube beam splitter (Newport). […]
To test the ability of this approach to measure FRET changes in a live cell based assay, COS-7 cells were transfected with the apoptosis sensor, SCAT 3.1 (Nagai and Miyawaki, 2004), which consists of cyan and yellow FPs separated by a caspase-3 cleavage site (FIG. 6A). […] SCAT 3.1 cleavage was also monitored in cells grown on a 96-well plate. […] The use of an intrinsic parameter, such as anisotropy, enables absolute threshold values to be determined for occurrence of FRET during an assay. […]

Structure (SMILES) | overall anisotropy in the yellow emission channel, indicating caspase-3 activation [1] | emission in the yellow FP channel (polarization) following induction of apoptosis [2]
OO [hydrogen peroxide] | increase in the overall anisotropy | –
CN[C@@H]1C[C@H]2O[C@@](C)([C@@H]1OC)n1c3ccccc3c3c4c(c5c6ccccc6n2c5c31)C(=O)NC4 [staurosporine] | – | changes from highly depolarized fluorescence to highly polarized fluorescence
